The source of these data is US3963707A, “Novel N-nitroso compounds, compositions containing such compounds, processes for their preparation and methods of treatment therewith, and novel intermediates” (Aktiebolaget Leo, priority 1973, dated 1976).

Structures are written as SMILES.

This assay deals with Hepatoma AH 130. Description: in vivo. Set-up: species or system SPF Wistar rats. Conditions: additional compounds, result in words. From the text:
The high activity against tumours is further illustrated in these experiments by comparisons with known antitumour agents used in the therapy. The therapeutic indexes (T.I.), i.e. the ratios LD50/ED50, are in all comparisons much more favourable with the compounds of the present invention.
LD50 is the dose that caused a 50 percent lethality of the animals, ED50 is the dose that caused a 50 percent reduction of tumour size.
The experimental design and the interpretation of the results have been in accordance with the standards set by the CCNSC (Cancer Chemotherapy Reports, January 1959 and December 1962), and by the DR&D (Cancer Chemotherapy Reports, September 1972, Vol. 3, No. 2).
The way of administration is by the intraperitoneal route (i.p.) in each case.
Experimental animals: SPF Wistar rats.
Tumour implant: 5 × 10^6 tumour cells i.p.
Therapy: One injection i.p. on the day following implantation.
Termination: The animals are killed on the 8th day.
Evaluation: Weights of tumours of test animals compared with those of control animals.

For the molecule `CC(=O)[C@H]1CC[C@H]2[C@@H]3CC=C4C[C@@H](OC(=O)N(C)C(=O)N(CCCl)N=O)CC[C@]4(C)[C@H]3CC[C@]12C` [pregnenolone-3β-/N^2-methyl-N^4-(2-chloroethyl)-N^4-nitroso allophanate/], the anti-tumor activity result is listed as “exhibit anti-tumor activity”.

In the case of `CC(C)[C@@H](C)/C=C/[C@@H](C)[C@H]1CC[C@H]2C3=CC=C4C[C@@H](OC(=O)N(CCCl)N=O)CC[C@]4(C)[C@H]3CC[C@]12C` [ergosterol-3β-N-(2-chloroethyl)-N-nitroso carbamate], the anti-tumor activity result is reported as “exhibit anti-tumor activity”. As for `C#C[C@]1(OC(C)=O)CC[C@H]2[C@@H]3CCC4=C[C@@H](OC(=O)NC(=O)N(CCCl)N=O)CC[C@@H]4[C@H]3CC[C@@]21C` [ethynodiol-17β-acetate-3β-/N^4-(2-chloroethyl)-N^4-nitroso allophanate/], the anti-tumor activity entry is reported as “exhibit anti-tumor activity”.

On to `CC(=O)OCC(=O)[C@H]1CC[C@H]2[C@@H]3CCC4=CC(=O)CC[C@]4(C)[C@H]3[C@@H](OC(=O)N(CCCl)N=O)C[C@]12C` [corticosterone-21-acetate-11β-N-(2-chloroethyl)-N-nitroso carbamate], for which the anti-tumor activity entry is “exhibit anti-tumor activity”. With `CC(=O)[C@@]1(OC(=O)N(CCCl)N=O)CC[C@H]2[C@@H]3C=C(Cl)C4=CC(=O)CC[C@]4(C)[C@H]3CC[C@@]21C` [6-chloro-6-dehydro-17α-hydroxyprogesterone,17α-N-(2-chloroethyl)-N-nitroso carbamate] the entry was “exhibit anti-tumor activity”; with `COc1ccc2c(c1)CC[C@@H]1[C@@H]2CC[C@]2(C)[C@@H](OC(=O)N(C(=O)N(CCCl)N=O)c3ccccc3)CC[C@@H]12` [estradiol-3-methylether-17β-/N^2-phenyl-N^4-(2-chloroethyl)-N^4-nitroso allophanate/], “exhibit anti-tumor activity”. With `CC1CC2(C)C(CCC3C2CCC2(C)C(OC(=O)N(CCCl)N=O)CCC32)CC1=O` (stereo not drawn) [2α-methyl-dihydrotestosterone-17β-N-(2-chloroethyl)-N-nitroso carbamate] the entry was “exhibit anti-tumor activity”; with `CCCCCCOc1ccc(CCC(=O)O[C@H]2CC[C@H]3[C@@H]4CC=C5C[C@@H](OC(=O)N(CCCl)N=O)CC[C@]5(C)[C@H]4CC[C@]23C)cc1` [androstenediol-17β-p-hexoxyphenylpropionate-3β-N-(2 -chloroethyl)-N-nitroso carbamate], “exhibit anti-tumor activity”; with `C[C@]12C=CC(=O)C=C1CC[C@@H]1[C@@H]2[C@@H](O)C[C@@]2(C)[C@H]1CC[C@]2(O)C(=O)COC(=O)N(C(=O)N(CCCl)N=O)C1CCCCC1` [prednisolone-21-/N^2-cyclohexyl-N^4-(2-chloroethyl)-N-nitroso allophanate/], “exhibit anti-tumor activity”. In the case of `CN(C(=O)O[C@H]1CC[C@@]2(C)C(=CC[C@H]3[C@@H]4CC[C@H](OP(=O)(O)O)[C@@]4(C)CC[C@@H]32)C1)C(=O)N(CCCl)N=O` [androstenediol-3β-/N^2-methyl-N^4-(2-chloroethyl)-N^4 nitroso allophanate/-17β-dihydrogen phosphate], the anti-tumor activity entry was “exhibit anti-tumor activity”. Under `C[C@@H]1CC2=CC(=O)CC[C@]2(C)[C@H]2CC[C@@]3(C)[C@@H](CC[C@]3(C)OC(=O)N(CCCl)N=O)[C@H]12` [7α,17α-dimethyltestosterone-17β-N-(2-chloroethyl)-N-nitroso carbamate] stands “exhibit anti-tumor activity”; under `C[C@H]1C[C@H]2[C@@H]3CC[C@H](OC(=O)N(CCCl)N=O)[C@@]3(C)CC[C@@H]2[C@@]2(C)CCC(=O)C=C12` [6α-methyltestosterone-17β-N-(2-chloroethyl)-N-nitroso carbamate], “exhibit anti-tumor activity”; under `CC(=O)[C@H]1CC[C@H]2[C@@H]3CC=C4C[C@@H](OC(=O)N(C(=O)N(CCCl)N=O)c5ccccc5)CC[C@]4(C)[C@H]3CC[C@]12C` [pregnenolone-3β-/N^2-phenyl-N^4-(2-chloroethyl)-N^4-nitroso allophanate/], “exhibit anti-tumor activity”. With `CC(=O)O[C@H]1CC[C@H]2[C@@H]3CCc4cc(OC(=O)N(CCF)N=O)ccc4[C@H]3CC[C@]12C` [estradiol-17β-acetate-3-N-(2-fluoroethyl)-N-nitroso carbamate] the entry was “exhibit anti-tumor activity”; with `Cc1ccc(N(C(=O)O[C@H]2CC[C@@]3(C)C(=CC[C@@H]4[C@@H]3CC[C@]3(C)C(=O)CC[C@@H]43)C2)C(=O)N(CCCl)N=O)cc1C` [dehydroepiandrosterone-3β-/N^2-(3,4-dimethylphenyl)-N^4-(2-chloroethyl)-N^4-nitroso allophanate/], “exhibit anti-tumor activity”. With `CC(C)CCC[C@@H](C)[C@H]1CC[C@H]2[C@@H]3CC=C4C[C@@H](OC(=O)N(C)C(=O)N(CCCl)N=O)CC[C@]4(C)[C@H]3CC[C@]12C` [cholesterol-3β-/N^2-methyl-N^4-(2-chloroethyl)-N^4-nitroso allophanate/], the anti-tumor activity entry was “exhibit anti-tumor activity”. With `CC(=O)O[C@H]1CC[C@H]2[C@@H]3CCc4cc(OC(=O)N(C)C(=O)N(CCCl)N=O)ccc4[C@H]3CC[C@]12C` [estradiol-17β-acetate-3-/N^2-methyl-N^ 4-(2-chloroethyl)-N^4-nitroso allophanate/] the entry was “exhibit anti-tumor activity”. In the case of `C[C@]12CC[C@H]3[C@@H](CC=C4C[C@@H](OC(=O)N(CCCl)N=O)CC[C@@]43C)[C@@H]1CC[C@@H]2OP(=O)(O)O` [androstenediol-3β-/N-(2-chloroethyl)-N-nitroso carbamate/-17β-dihydrogen phosphate], the anti-tumor activity result is “exhibit anti-tumor activity”. Under `C[C@]12CC[C@H]3[C@@H](CC=C4C[C@@H](OC(=O)N(CCCl)N=O)CC[C@@]43C)[C@@H]1CC[C@@H]2OP(=O)(O)Oc1ccccc1` [androstenediol-3β-/N-(2-chloroethyl)-N-nitroso carbamate/-17β-phenyl hydrogen phosphate] stands “exhibit anti-tumor activity”; under `C[C@]12C=CC(=O)C=C1CC[C@@H]1[C@@H]2[C@@H](OC(=O)N(CCCl)N=O)C[C@@]2(C)[C@H]1CC[C@]2(O)C(=O)COP(=O)(O)O` [prednisolone-11β-/N-(2-chloroethyl)-N-nitroso carbamate/-21-dihydrogenphosphate], “exhibit anti-tumor activity”.

As to `C#C[C@]1(OC(=O)N(CCCl)N=O)CC[C@H]2[C@@H]3CCC4=CC(=O)CC[C@@H]4[C@H]3CC[C@@]21CC` [17α-ethynyl-18-methyl-19-nortestosterone-17β-N-(2-chloroethyl)-N-nitroso carbamate], the anti-tumor activity entry is listed as “exhibit anti-tumor activity”. On to `CC1=C2CC[C@H]3[C@@H]4CC[C@H](OC(=O)N(CCCl)N=O)[C@@]4(C)CC[C@@H]3[C@@]2(C)CCC1=O` [4-methyl-testosterone-17β-N-(2-chloroethyl)-N-nitroso carbamate], for which the anti-tumor activity entry is “exhibit anti-tumor activity”.

Consider `C[C@]12CC[C@@H](OC(=O)N(CCF)N=O)C[C@H]1CC[C@@H]1[C@@H]2CC[C@]2(C)C(=O)CC[C@@H]12` [etiocholanolone-3α-N-(2-fluoroethyl)-N-nitroso carbamate], for which the anti-tumor activity result is given as “exhibit anti-tumor activity”. Under `CC(=O)[C@H]1CC[C@H]2[C@@H]3CC=C4C[C@@H](OC(=O)N(C(=O)N(CCCl)N=O)C5CCCCC5)CC[C@]4(C)[C@H]3CC[C@]12C` [pregnenolone-3β-/N^2-cyclohexyl-N^4-(2-chloroethyl)-N^4-nitroso allophanate/] stands “exhibit anti-tumor activity”; under `CC1CCC(N(C(=O)Oc2ccc3c(c2)CC[C@@H]2[C@@H]3CC[C@]3(C)C(=O)CC[C@@H]23)C(=O)N(CCCl)N=O)CC1` (some centres unmarked) [estrone-3-/N^2-(4-methylcyclohexyl)-N^4-(2-chloroethyl)-N^4-nitroso allophanate/], “exhibit anti-tumor activity”; under `C#C[C@]1(OC(=O)N(CCCl)N=O)CC[C@H]2[C@@H]3CCC4=C[C@@H](OP(=O)(O)Oc5ccccc5)CC[C@@H]4[C@H]3CC[C@@]21C` [ethynodiol-17β-N-(2-chloroethyl)-N-nitroso carbamate-3β-phenylhydrogen phosphate], “exhibit anti-tumor activity”.

With `CC1CCC(N(C(=O)O[C@H]2CC[C@@]3(C)C(=CC[C@@H]4[C@@H]3CC[C@]3(C)C(=O)CC[C@@H]43)C2)C(=O)N(CCCl)N=O)CC1` (stereo partly drawn) [dehydroepiandrosterone-3β-/N^2-(4-methylcyclohexyl)-N^4-(2-chloroethyl)-N^4-nitroso allophanate/], the anti-tumor activity result was “exhibit anti-tumor activity”.

Regarding `CCOP(=O)(O)O[C@H]1CC[C@H]2[C@@H]3CC=C4C[C@@H](OC(=O)N(CCCl)N=O)CC[C@]4(C)[C@H]3CC[C@]12C` [androstenediol-3β-/N-(2-chloroethyl)-N-nitroso carbamate/-17β-ethyl hydrogen phosphate], the anti-tumor activity result was “exhibit anti-tumor activity”. Take `CC(=O)O[C@H]1C(=O)C[C@H]2[C@@H]3CCc4cc(OC(=O)N(CCCl)N=O)ccc4[C@H]3CC[C@]12C` [estra-1,3,5(10)-triene-3,17β-diol-16-one,17β-acetate-3-N-(2-chloroethyl)-N-nitroso carbamate]: the anti-tumor activity result is on record as “exhibit anti-tumor activity”.
